The record followed here is patent US10011609B2, “Heterocyclic compounds” (CADILA HEALTHCARE LIMITED, priority 2013, dated 2018).

In general, EC50 refers to the concentration at which the effect is half-maximal.

The experiment deals with T1, GPR40 (Homo sapiens, UniProt O14842).
T1 construct: host or cells: HEK293 (ChemiBrite cell line)
T1 sequence (O14842 whole entry, species assumed): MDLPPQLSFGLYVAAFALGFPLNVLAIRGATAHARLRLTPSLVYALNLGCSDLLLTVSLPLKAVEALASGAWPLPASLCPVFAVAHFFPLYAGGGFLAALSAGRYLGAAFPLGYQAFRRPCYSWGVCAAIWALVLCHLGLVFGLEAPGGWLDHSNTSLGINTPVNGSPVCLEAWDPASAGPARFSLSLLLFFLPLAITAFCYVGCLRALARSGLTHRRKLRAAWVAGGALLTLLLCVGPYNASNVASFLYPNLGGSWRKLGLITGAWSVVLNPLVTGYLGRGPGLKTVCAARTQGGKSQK
The experiment in a line: Promoter-luciferase assay to measure GPR40 activation (HEK293 cells stably transfected with GPR40 cDNA). The format is cell-based. The following applies: HEK293 cells stably transfected with GPR40, 5xSRE-luciferase; read-out: EC50 in Luciferase assay. The procedure:
GPR40 activation was measured in HEK293 cells stably transfected with GPR40 cDNA (ChemiBrite cell lines from Millipore, US). These cells were transiently transfected with a pGL2 (Promega Inc.) plasmid having a 5×SRE sequence, cloned 5′ of a luciferase gene along with a β-galactosidase plasmid as normalizing control. Briefly, 35000 cells/well were seeded in a 96 well plates. After overnight incubation at 37° C., the cells were washed with PBS and transfected with the 5×-SRE-Luciferase plasmid and the β-galactosidase plasmid. 6 h post transfection, media was removed and replaced with fresh media with different concentration of drugs and incubated for 16 more hours. The cells were then lysed in 50 μL of Glo-Lysis buffer (Promega) for 30 min at room temperature. The cells were then centrifuged and lysates were collected. Luciferase activity was measured by adding 100 μL of luciferase substrate (Promega) in 20 μL of lysate and measuring the luminescence in luminometer. The […] activity was also measured by adding 20 μL of lysates with 20 μL of β-galactosidase buffer (Promega) and monitoring the absorbance at 415 nm. Luciferase values were divided by β-galactosidase values to normalize transfection efficiency (Table 2)
`CC#C[C@@H](CC(=O)O)c1ccc(OCc2cccc(CN3CCc4nc(Br)sc4C3)c2)cc1` [Compound 32, (S)-3-(4-((3-((2-Bromo-6,7-dihydrothiazolo[5,4-c]pyridin-5(4H)-yl)methyl)benzyl)oxy)phenyl)hex-4-ynoic acid]: the concentration for a half-maximal effect (EC50) stood at 4.8 nM. As to `CC#C[C@@H](CC(=O)O)c1ccc(OCc2cccc(CN3CCc4sc(C=O)cc4C3)c2)cc1` [Compound 44, (S)-3-(4-((3-((2-formyl-6,7-dihydrothieno[3,2-c]pyridin-5(4H)-yl)methyl)benzyl)oxy)phenyl)hex-4-ynoic acid], the EC50 is 4.8 nM. `CC#C[C@@H](CC(=O)O)c1ccc(OCc2cccc(CN3CCc4oc(C5CC5)nc4C3)c2)cc1` [Compound 26, (S)-3-(4-((3-((2-Cyclopropyl-6,7-dihydrooxazolo[4,5-c]pyridin-5(4H)-yl)methyl)benzyl)oxy)phenyl)hex-4-ynoic acid]: the EC50 was determined as 4.1 nM. As to `CC#C[C@@H](CC(=O)O)c1ccc(OCc2cccc(CN3CCc4sc(C(=O)N5CCCC5)cc4C3)c2)cc1` [Compound 62, (S)-3-(4-((3-((2-(pyrrolidine-1-carbonyl)-6,7-dihydrothieno[3,2-c]pyridin-5(4H)-yl)methyl)benzyl)oxy)phenyl)hex-4-ynoic acid], the EC50 amounted to 3 nM. For `CC#C[C@@H](CC(=O)O)c1ccc(OCc2cccc(CN3CCc4sc(C(C)=O)cc4C3)c2)cc1` [Compound 72, (S)-3-(4-((3-((2-Acetyl-6,7-dihydrothieno[3,2-c]pyridin-5(4H)-yl)methyl)benzyl)oxy)phenyl)hex-4-ynoic acid], the EC50 was determined as 2.3 nM. On to `CC#C[C@@H](CC(=O)O)c1ccc(OCc2cccc(CN3CCCc4ccccc43)c2)cc1` [Compound 13, (S)-3-(4-((3-((3,4-dihydroquinolin-1(2H)-yl)methyl)benzyl)oxy)phenyl)hex-4-ynoic acid], for which the concentration giving a half-maximal response (EC50) was 0.8 nM.

With `CC#C[C@@H](CC(=O)O)c1ccc(OCc2cccc(CN3CCc4ncccc4C3)c2)cc1` [Compound 68, (S)-3-(4-((3-((7,8-Dihydro-1,6-naphthyridin-6(5H)-yl)methyl)benzyl)oxy)phenyl) hex-4-ynoic acid], the EC50 turned out to be 11.9 nM. Next, `CC#C[C@@H](CC(=O)O)c1ccc(OCc2cccc(CN3CCc4sc(C(=O)NC)cc4C3)c2)cc1` [Compound 46, (S)-3-(4-((3-((2-(methylcarbamoyl)-6,7-dihydrothieno[3,2-c]pyridin-5(4H)-yl)methyl)benzyl)oxy)phenyl)hex-4-ynoic acid]: 6 nM; `CC#CC(CC(=O)O)c1ccc(OCc2cccc(CN3CCc4sc(C)cc4C3)c2)cc1` (stereo not shown) [Compound 58, 3-(4-((3-((2-Methyl-6,7-dihydrothieno[3,2-c]pyridin-5(4H)-yl)methyl)benzyl)oxy)phenyl)hex-4-ynoic acid]: 3.7 nM; `CC#C[C@@H](CC(=O)O)c1ccc(OCc2cccc(CN3CCc4nc(Cl)sc4C3)c2)cc1` [Compound 31, (S)-3-(4-((3-((2-Chloro-6,7-dihydrothiazolo[5,4-c]pyridin-5(4H)-yl)methyl)benzyl)oxy)phenyl)hex-4-ynoic acid]: 9.7 nM.

As for `CC#C[C@@H](CC(=O)O)c1ccc(OCc2cccc(CN3CCc4sc(C(F)F)cc4C3)c2)cc1` [Compound 18, (S)-3-(4-((3-((2-(Difluoromethyl)-6,7-dihydrothieno[3,2-c]pyridin-5(4H)-yl)methyl)benzyl)oxy)phenyl)hex-4-ynoic acid], the EC50 is 8.8 nM. For the compound `CC#C[C@@H](CC(=O)O)c1ccc(OCc2cccc(CN3CC4CC(C3)O4)c2)cc1` [Compound 23, (3S)-3-(4-((3-(6-Oxa-3-azabicyclo[3.1.1]heptan-3-ylmethyl)benzyl)oxy)phenyl)hex-4-ynoic acid], the EC50 came to 5.3 nM. In the case of `CC#C[C@H](CC(=O)O)c1ccc(OCc2cccc(CN3CCc4sc(C)cc4C3)c2)cc1` [Compound 55, (R)-3-(4-((3-((2-methyl-6,7-dihydrothieno[3,2-c]pyridin-5(4H)-yl)methyl)benzyl)oxy)phenyl)hex-4-ynoic acid], the EC50 stood at 56.5 nM.
